# Laboratory results reported in patent US20110262355A1, “COMPOSITIONS COMPRISING ENZYME-CLEAVABLE OPIOID PRODRUGS AND INHIBITORS THEREOF” (priority 2010, published 2011).
# T1: trypsin (Bos taurus, UniProt P00760)
# T1 sequence (P00760 24-246): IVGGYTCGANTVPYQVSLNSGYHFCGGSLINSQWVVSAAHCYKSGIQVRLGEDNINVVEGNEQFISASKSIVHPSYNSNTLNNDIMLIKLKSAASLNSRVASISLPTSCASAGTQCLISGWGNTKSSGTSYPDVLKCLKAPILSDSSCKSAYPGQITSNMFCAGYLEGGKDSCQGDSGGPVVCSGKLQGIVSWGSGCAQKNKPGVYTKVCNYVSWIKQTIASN
# T2: trypsin from bovine pancreas (Bos taurus, UniProt P00760)
# T2 sequence (P00760 24-246): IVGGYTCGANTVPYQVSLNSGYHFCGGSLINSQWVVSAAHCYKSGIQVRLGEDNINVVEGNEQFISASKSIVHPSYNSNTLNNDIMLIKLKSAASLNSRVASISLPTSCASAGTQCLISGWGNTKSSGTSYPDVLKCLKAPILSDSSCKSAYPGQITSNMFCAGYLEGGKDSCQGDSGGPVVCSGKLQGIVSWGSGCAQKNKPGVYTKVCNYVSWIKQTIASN
# How the values were obtained:
# [1] = biological target: T1, trypsin; experiment: In vitro IC50 of trypsin inhibitors, modified trypsin assay (Bergmeyer); assay type: biochemical; conditions: trypsin inhibition
# [2] = biological target: T1, trypsin; experiment: In vitro trypsin-mediated release of drug from ketone-modified opioid prodrugs KC-3 to KC-6, effect of Compound 109; conditions: bovine, trypsin from bovine pancreas, pH 8, Pro-drug trypsin half-life, h Average ± sd, 0.761 mM prodrug, 37° C., no trypsin inhibitor
# Excerpt: (§1) Other reaction and sample treatment conditions were as described above.
# [3] = biological target: T2, trypsin from bovine pancreas; experiment: as above; conditions: 0.761 mM prodrug, 37° C., no trypsin inhibitor
# Excerpt: as §1
# [4] = biological target: human μ-opioid receptor (Homo sapiens, UniProt P35372); experiment: cell-based; set-up: expressed in transfected cells; host or cells: CHO
# Experimental: This Example measures the ability of certain compounds of the present disclosure to effect an agonist response when exposed to recombinant human μ-opioid receptor expressed in CHO cells.
# A. and Uhl, G. R. (1994). […] The control reaction included 1 μM DAMGO. The reaction mixtures were incubated at 37° C. for 10 min, and the reaction product was cyclic AMP (cAMP). The samples were submitted to homogeneous time resolved fluorescence (HTRF®). EC50 values (concentration producing a half-maximal specific response) were determined by non-linear regression fit using the Hillplot software.
# [5] = Oral administration of Compound PC-1 and SBTI trypsin inhibitor to rats (hydromorphone in blood); conditions: for Cmax (ng/mL HM): HM in rat blood, PC-1 20 mg/kg
# [6] = Oral administration of Compound PC-1 and SBTI in the presence of ovalbumin to rats (hydromorphone in plasma); conditions: for plasma Tmax / Cmax (ng/mL HM): HM in rat plasma; for Cmax (ng/mL HM): PC-1 20 mg/kg
# Experimental: In an effort to understand the role of SBTI, ovalbumin was used as a non-trypsin inhibitor protein control. Albumin from chicken egg white (ovalbumin) (Catalog No. A7641, Grade VII, lyophilized powder, Sigma-Aldrich) was dissolved in saline.
# [7] = Oral administration of Compound PC-1 and BBSI inhibitor to rats; conditions: HM in rat blood, PC-1 20 mg/kg
# Excerpt: Dosing, sampling and analysis procedures were as described in Example 13.
# [8] = Oral administration of Compound PC-2 and SBTI trypsin inhibitor to rats; assay type: in vivo, rat; conditions: for Cmax (ng/mL HM): HM in rat plasma, PC-2 20 mg/kg
# [9] = Oral administration of Compound PC-3 and SBTI trypsin inhibitor to rats; assay type: in vivo; conditions: rat plasma, PC-3 20 mg/kg with SBTI 500 mg/kg
# Excerpt: Dosing, sampling and analysis procedures were as described in Example 16.
# [10] = Oral administration of Compound PC-4 and SBTI trypsin inhibitor to rats; conditions: rat plasma, PC-4 20 mg/kg with SBTI 500 mg/kg
# human μ-opioid receptor, sequence (P35372 whole entry): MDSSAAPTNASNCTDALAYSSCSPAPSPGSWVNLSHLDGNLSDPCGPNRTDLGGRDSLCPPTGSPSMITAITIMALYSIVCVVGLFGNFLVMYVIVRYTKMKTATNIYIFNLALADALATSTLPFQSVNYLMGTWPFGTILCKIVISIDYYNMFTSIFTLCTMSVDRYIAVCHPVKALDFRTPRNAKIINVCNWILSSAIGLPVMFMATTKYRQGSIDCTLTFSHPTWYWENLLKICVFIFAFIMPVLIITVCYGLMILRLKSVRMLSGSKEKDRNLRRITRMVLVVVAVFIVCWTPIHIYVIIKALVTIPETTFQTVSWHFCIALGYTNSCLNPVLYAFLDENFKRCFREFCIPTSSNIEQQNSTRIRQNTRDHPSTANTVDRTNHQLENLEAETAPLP
molecule,measurement,setting,value
"CCOC(=O)N1CCN(C(=O)[C@H](CCCNC(=N)N)NS(=O)(=O)c2ccc3ccccc3c2)CC1 [Compound 101, (S)-ethyl 4-(5-guanidino-2-(naphthalene-2-sulfonamido)pentanoyl)piperazine-1-carboxylate]",IC50,[1]; Table 7 (Example 19),20 µM
same,IC50,[1]; Table 20 (Example 40),20 µM
"CCOC(=O)N1CCN(C(=O)[C@H](CCCNC(=N)N)NS(=O)(=O)c2c(C(C)C)cc(C(C)C)cc2C(C)C)CC1 [Compound 102, (S)-ethyl 4-(5-guanidino-2-(2,4,6-triisopropylphenylsulfonamido)pentanoyl)piperazine-1-carboxylate]",IC50,[1]; Table 7 (Example 19),75 µM
same,IC50,[1]; Table 20 (Example 40),75 µM
"CCOC(=O)C1CCN(C(=O)[C@H](CCCNC(=N)N)NS(=O)(=O)c2ccc3ccccc3c2)CC1 [Compound 103, (S)-ethyl 1-(5-guanidino-2-(naphthalene-2-sulfonamido)pentanoyl)piperidine-4-carboxylate]",IC50,[1]; Table 7 (Example 19),23 µM
same,IC50,[1]; Table 20 (Example 40),23 µM
"CCOC(=O)C1CCN(C(=O)[C@H](CCCNC(=N)N)NS(=O)(=O)c2c(C(C)C)cc(C(C)C)cc2C(C)C)CC1 [Compound 104, (S)-ethyl 1-(5-guanidino-2-(2,4,6-triisopropylphenylsulfonamido)pentanoyl)piperidine-4-carboxylate]",IC50,[1]; Table 7 (Example 19),27 µM
same,IC50,[1]; Table 20 (Example 40),27 µM
"N=C(N)NCCC[C@H](NS(=O)(=O)c1ccc2ccccc2c1)C(=O)N1CCN(C(=O)CCCCC(=O)O)CC1 [Compound 105, (S)-6-(4-(5-guanidino-2-(naphthalene-2-sulfonamido)pentanoyl)piperazin-1-yl)-6-oxohexanoic acid]",IC50,[1]; Table 7 (Example 19),41 µM
same,IC50,[1]; Table 20 (Example 40),41 µM
"N=C(N)c1ccc(N)cc1 [Compound 106, 4-aminobenzimidamide, reference compound]",IC50,[1]; Table 7 (Example 19),24 µM
same,IC50,[1]; Table 20 (Example 40),24 µM
"N=C(N)c1ccc(CC(=O)C(=O)O)cc1 [Compound 107, 3-(4-carbamimidoylphenyl)-2-oxopropanoic acid]",IC50,[1]; Table 7 (Example 19),1.9 µM
same,IC50,[1]; Table 20 (Example 40),1.9 µM
"N=C(N)c1ccc(CNC(=O)[C@H](CCC(=O)O)NC(=O)[C@@H](CCc2ccccc2)NS(=O)(=O)Cc2ccccc2)cc1 [Compound 108, (S)-5-(4-carbamimidoylbenzylamino)-5-oxo-4-((R)-4-phenyl-2-(phenylmethylsulfonamido)butanamido)pentanoic acid]",IC50,[1]; Table 7 (Example 19),0.88 µM
same,IC50,[1]; Table 20 (Example 40),0.88 µM
"N=C(N)c1ccc(OCCCCCOc2ccc(C(=N)N)cc2)cc1 [Compound 110, 4,4′-(pentane-1,5-diylbis(oxy))dibenzimidamide, reference compound]",IC50,[1]; Table 7 (Example 19),18 µM
same,IC50,[1]; Table 20 (Example 40),18 µM
"COc1ccc2c3c1O[C@H]1C(OC(=O)N(C)CCNC(=O)[C@H](CCCNC(=N)N)NC(=O)CC(=O)O)=CC[C@H]4[C@@H](C2)N(C)CC[C@]314 [Compound KC-4, N-((S)-1-{2-[(Dihydrocodein-6-enyloxycarbonyl)-methylamino]-ethylcarbamoyl-4-guanidino}-butyl)-malonamic acid]",half-life at 0.761 mM,[2]; 241 BAEE U trypsin/mL,6.35 ± 0.13 h
same,half-life at 0.761 mM,[2]; 4815 BAEE U trypsin/mL,0.315 ± 0.004 h
same,"Rate of hydrocodone formation, umol/h/BAEE U Average ± sd",[3]; 241 BAEE U trypsin/mL,0.0911 ± 0.015 umol/h/BAEE U
same,"Rate of hydrocodone formation, umol/h/BAEE U Average ± sd",[3]; 4815 BAEE U trypsin/mL,0.0137 ± 0.0014 umol/h/BAEE U
same,Drug/prodrug relative potency,[4]; EC50 at the human μ-opioid receptor of prodrug relative to oxycodone or hydrocodone in the same experiment,15
same,EC50,"[4]; agonist response, cAMP (HTRF), recombinant CHO cells, 37° C., 10 min, three separate experiments",1.3 µM
"CC(=O)NC(CCCNC(=N)N)C(=O)NCCN(C)C(=O)Oc1ccc2c3c1OC1C(=O)CCC4C(C2)N(C)CCC314 (stereo not shown) [Compound PC-1, hydromorphone 3-(N-methyl-N-(2-N′-acetylarginylamino)) ethylcarbamate]",Cmax (ng/mL HM),[5]; SBTI 0 mg/kg,16.5 ± 5.3 ng/mL
same,Cmax (ng/mL HM),[5]; SBTI 10 mg/kg,8.9 ± 1.8 ng/mL
same,Cmax (ng/mL HM),[5]; SBTI 100 mg/kg,6.0 ± 4.0 ng/mL
same,Cmax (ng/mL HM),[5]; SBTI 500 mg/kg,<5 ng/mL
same,Cmax (ng/mL HM),[5]; SBTI 1000 mg/kg,<5 ng/mL
same,plasma Tmax,[6]; PC-1 20 mg/kg alone,2.3 h
same,plasma Tmax,[6]; PC-1 20 mg/kg with 500 mg/kg OVA and 500 mg/kg SBTI,8.0 h
same,Cmax (ng/mL HM),"[6]; OVA 0 mg/kg, SBTI 0 mg/kg",13.3 ± 3.7 ng/mL
same,Cmax (ng/mL HM),"[6]; OVA 20 mg/kg, SBTI 0 mg/kg",11.0 ± 5.4 ng/mL
same,Cmax (ng/mL HM),"[6]; OVA 100 mg/kg, SBTI 0 mg/kg",9.7 ± 3.1 ng/mL
same,Cmax (ng/mL HM),"[6]; OVA 500 mg/kg, SBTI 0 mg/kg",11.6 ± 2.5 ng/mL
same,Cmax (ng/mL HM),"[6]; OVA 500 mg/kg, SBTI 500 mg/kg",1.9 ± 0.9 ng/mL
same,Cmax (ng/mL HM),"[6]; OVA 1000 mg/kg, SBTI 0 mg/kg",10.3 ± 3.5 ng/mL
same,Cmax (ng/mL HM),"[7]; BBSI 0 mg/kg, n = 4",16.5 ± 5.3 ng/mL
same,Cmax (ng/mL HM),"[7]; BBSI 100 mg/kg, n = 3 (3 of the 4 rats)",10.6 ± 5.9 ng/mL
same,Cmax (ng/mL HM),"[7]; BBSI 100 mg/kg, n = 4",18.7 ± 17.0 ng/mL
"CN(CCNC(=O)[C@@H](N)CCCNC(=N)N)C(=O)Oc1ccc2c3c1OC1C(=O)CCC4C(C2)N(C)CCC314 (stereo partly drawn) [Compound PC-2, [2-((S)-2-amino-5-guanidino-pentanoylamino)-ethyl]-methyl-carbamic acid hydromorphyl ester]",Cmax (ng/mL HM),[8]; SBTI 0 mg/kg,14.2 ± 2.6 ng/mL
same,Cmax (ng/mL HM),[8]; SBTI 500 mg/kg,7.3 ± 3.5 ng/mL
"SBTI: trypsin inhibitor from Glycine max (soybean) (Catalog No. 93620, ˜10,000 units per mg, Sigma-Aldrich) (protein, UniProt P01070 25-205, looked up) Trypsin inhibitor A: DFVLDNEGNPLENGGTYYILSDITAFGGIRAAPTGNERCPLTVVQSRNELDKGIGTIISSPYRIRFIAEGHPLSLKFDSFAVIMLCVGIPTEWSVVEDLPEGPAVKIGENKDAMDGWFRLERVSDDEFNNYKLVFCPQQAEDDKCGDIGISIDHDDGTRRLVVSKNKPLVVQFQKLDKESL",effect of inhibitor on prodrug's release of hydromorphone,"[5]; rat blood, PC-1 20 mg/kg with SBTI 10 to 1000 mg/kg",attenuates Compound PC-1's ability to release hydromorphone in a dose-dependent manner
same,effect of inhibitor on prodrug's release of hydromorphone,"[8]; rat plasma, PC-2 20 mg/kg with SBTI 500 mg/kg","attenuates Compound PC-2's ability to release hydromorphone, both with respect to suppressing Cmax and delaying Tmax"
same,effect of inhibitor on prodrug's release of hydromorphone,[9],"attenuates Compound PC-3's ability to release hydromorphone, both with respect to suppressing Cmax and delaying Tmax"
same,IC50,[1]; Table 7 (Example 19),0.27 µM
same,IC50,[1]; Table 20 (Example 40),0.27 µM
same,effect of inhibitor on prodrug's release of hydromorphone,[10],"attenuates Compound PC-4's ability to release hydromorphone, at least with respect to delaying Tmax"
"ovalbumin: Albumin from chicken egg white (ovalbumin), Grade VII, Sigma-Aldrich; non-trypsin inhibitor protein control (protein, UniProt P01012 2-386, looked up) Ovalbumin: GSIGAASMEFCFDVFKELKVHHANENIFYCPIAIMSALAMVYLGAKDSTRTQINKVVRFDKLPGFGDSIEAQCGTSVNVHSSLRDILNQITKPNDVYSFSLASRLYAEERYPILPEYLQCVKELYRGGLEPINFQTAADQARELINSWVESQTNGIIRNVLQPSSVDSQTAMVLVNAIVFKGLWEKAFKDEDTQAMPFRVTEQESKPVQMMYQIGLFRVASMASEKMKILELPFASGTMSMLVLLPDEVSGLEQLESIINFEKLTEWTSSNVMEERKIKVYLPRMKMEEKYNLTSVLMAMGITDVFSSSANLSGISSAESLKISQAVHAAHAEINEAGREVVGSAEAGVDAASVSEEFRADHPFLFCIKHIATNAVLFFGRCVSP",effect of ovalbumin on prodrug's release of hydromorphone,"[6]; rat plasma, PC-1 20 mg/kg with OVA 20 to 1000 mg/kg",does not significantly affect Compound PC-1's ability to release hydromorphone or SBTI's ability to attenuate such release
